According to patent US9895370B2, “Pharmaceutical composition for preventing or treating of cirrhosis of liver comprising G protein coupled receptor 119 ligand as an active ingredient” (DONGGUK UNIVERSITY INDUSTRY—ACADEMIC COOPERATION FOUNDATION, priority 2015, dated 2018):

Tested on: human HSC line LX-2
Experiment: TGFβ1-inducible collagen I and TGFβ expression in LX-2
Type: cell-based
Settings: LX-2 treated with TGFβ1; FIGS. 2c, 2d
Description: A human HSC line (LX-2, Milipore, U.S.A.) was plated in a 6-well plate, and grown to confluency in DMEM supplemented with 1% penicillin-streptomycin (Hyclone, U.S.A.) and 2% fetal bovine serum (Hyclone, U.S.A.) at 37° C. in a 5% CO2 incubator. For a further experiment, the confluent HSC line was incubated in an FBS-free medium, instead of the 2% FBS-added medium.
Total RNA ([…]) extracted from cells using Trizol and a Maxime RT PreMix Kit (iNtRON Biotechnology, Gyeonggi-do, Korea) was used to obtain cDNA. For RT-PCR, a target gene was amplified by PCR using a Maxime™ PCR PreMix Kit according to the manufacturer's instructions, and subjected to electrophoresis in a 2% agrose gel, thereby identifying the amplified PCR product.
Meanwhile, for real-time RT-qPCR, the synthesized cDNA was assessed in a CFX Connect™ Real-Time PCR Detection System (Bio-Rad Laboratories, CA, USA) instrument using a SYBR green dye (Bio-Rad). The CP value of the gene was calibrated with the CP value of S 18r gene. Also, through a melting curve analysis, specificity of the amplified PCR product was confirmed.
Sodium dodecylsulfate-polyacrylamide gel electrophoresis (SDS-PAGE) was performed using a gel electrophoresis device (Mighty Small SE 250, Hoefer Scientific Instruments, San Francisco) according to the method established by the inventors. A lysed cell fraction was diluted with a sample dilution buffer [63 mM Tris (pH. 6.8), 10% glycerol, 2% SDS, 0.0013% bromophenol blue, 5% β-mercaptoethanol], and subjected to electrophoresis in an electrode buffer (15 g Tris, 72 g glycerin and 5 g SDS contained in an 1 L solution) using a 8-12% gel. After electrophoresis, the gel was transferred to a nitrocellulose membrane to transfer proteins using an electrophoresis device for transfer in a transfer buffer (25 mM Tris, 192 mM glycerin, 20% v/v methanol (pH. 8.3)] at 40 mA for 3 hours. The nitrocellulose membrane was reacted with first antibodies, reacted with horseradish peroxidase-conjugated goat anti-rabbit IgG and horseradish peroxidase-conjugated goat anti-mouse IgG as secondary antibodies for 1 hour, and visualized using an ECL chemiluminescence system (Amersham, Gaithesberg, Mass.).
A critical cytokine having an influence on the induction of liver fibrosis, TGFβ1, is a potent fibrosis stimulation factor for HSCs. To examine the expression of a liver fibrosis-inducing factor which was increased when the human liver cell line LX-2, cultured by method D was treated with TGFβ1, changes in expression according to the treatment with GPR119 ligands (MBX-2982, GSK1292263) were assessed by the methods described in G and H, thereby observing the effect of the GPR119 ligands.

CC(C)c1noc(N2CCC(COc3ccc(-c4ccc(S(C)(=O)=O)cc4)nc3)CC2)n1 [GSK1292263, 3-isopropyl-5-(4-(((6-(4-(methylsulfonyl)phenyl)pyridin-3-yl)oxy)methyl)piperidin-1-yl)-1,2,4-oxadiazole]
expression of TGFβ1-inducible TGFβ: inhibited
expression of TGFβ1-inducible collagen I: inhibited
